According to patent publication US20120214822A1 (ASTRAZENECA AB, priority 2007, published 2012):

Target: human active recombinant p38α-6His tagged (Homo sapiens, UniProt Q16539)
Test: P38 Alpha Enzyme Assay (AlphaScreen, biotinylated-ATF2 substrate);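 further: 0.5 nM final p38α, reaction started with ATP and run 45 min at 37 °C, phospho-ATF2 read by antibody-based AlphaScreen, background wells quenched with EDTA before ATP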
Type: biochemical
Settings: p38 alpha enzyme inhibition; means of replicate determinations; 4 h pre-incubation at 37° C.; SD of assay 0.2-0.3 log units

Chain of human active recombinant p38α-6His tagged (Q16539 whole entry): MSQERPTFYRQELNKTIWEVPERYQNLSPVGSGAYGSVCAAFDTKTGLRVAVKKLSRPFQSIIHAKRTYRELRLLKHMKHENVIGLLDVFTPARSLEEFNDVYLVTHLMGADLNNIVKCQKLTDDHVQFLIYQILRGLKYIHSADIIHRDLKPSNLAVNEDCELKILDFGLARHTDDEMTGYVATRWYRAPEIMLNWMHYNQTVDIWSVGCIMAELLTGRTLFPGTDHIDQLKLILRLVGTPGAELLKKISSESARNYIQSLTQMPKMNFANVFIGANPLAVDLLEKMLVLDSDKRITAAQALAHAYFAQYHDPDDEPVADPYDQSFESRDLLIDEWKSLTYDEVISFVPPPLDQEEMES

pIC50	Compound
9.3	Cc1ccc(C(=O)NC2CC2)cc1-n1ccnc(N[C@@H](c2ccccc2)[C@@H](C)CNC(C)(C)CO)c1=O [Example 193, N-Cyclopropyl-3-[3-[[(1R,2S)-3-[(2-hydroxy-1,1-dimethylethyl)amino]-2-methyl-1-phenylpropyl]amino]-2-oxo-1(2H)-pyrazinyl]-4-methyl-benzamide]
7.3	Cc1ccc(C(=O)NC2CC2)cc1-n1ccnc(SCc2ccccc2)c1=O [Example 118]
8.1	CNCCCOc1ccccc1C1CCCN1c1nccn(-c2cc(C(=O)NC3CC3)ccc2C)c1=O (centres unmarked) [Example 324, N-Cyclopropyl-4-methyl-3-[3-(2-{2-[3-(methylamino)propoxy]phenyl}pyrrolidin-1-yl)-2-oxopyrazin-1(2H)-yl]benzamide]
8.6	Cc1ccc(C(=O)NC2CC2)cc1-n1ccnc(N[C@H](C)c2cccc3ccccc23)c1=O [Example 84, N-Cyclopropyl-4-methyl-3-[3-[[(1R)-1-(1-naphthalenyl)ethyl]amino]-2-oxo-1(2H)-pyrazinyl]-benzamide]
9.6	Cc1ccc(C(=O)NC2CC2)cc1-n1ccnc(NC(C)(C)c2ccccc2OCCC2CCNCC2)c1=O [Example 217, N-Cyclopropyl-4-methyl-3-[3-[[1-methyl-1-[2-[2-(4-piperidinyl)ethoxy]phenyl]ethyl]amino]-2-oxo-1(2H)-pyrazinyl]-benzamide]
9.9	Cc1ccc(C(=O)NC2CC2)cc1-n1ccnc(NC(C)(C)c2ccccc2OCCNC[C@H](C)O)c1=O [Example 213, N-Cyclopropyl-3-[3-[[1-[2-[2-[[(2S)-2-hydroxypropyl]amino]ethoxy]phenyl]-1-methylethyl]amino]-2-oxo-1(2H)-pyrazinyl]-4-methyl-6-benzamide]
8.5	Cc1ccccc1[C@H](Nc1nccn(-c2cc(C(=O)NC3CC3)ccc2C)c1=O)[C@@H](C)CO [Example 272, N-Cyclopropyl-3-[3-[[(1R,2R)-3-hydroxy-1-(2-methylphenyl)-2-methylpropyl]amino]-2-oxo-1(2H)-pyrazinyl]-4-methyl-benzamide]
6.3	Cc1ccc(C(=O)NC2CC2)cc1-n1ccnc(N[C@@H](CO)c2ccccc2)c1=O [Example 81, N-Cyclopropyl-3-[3-[[(1R)-2-hydroxy-1-phenylethyl]amino]-2-oxo-1(2H)-pyrazinyl]-4-methyl-benzamide]
9.9	Cc1ccc(C(=O)NC2CC2)cc1-n1ccnc(NC2(c3ccccc3OCCNCCO)CC2)c1=O [Example 233, N-Cyclopropyl-3-[3-[[1-[2-[2-[(2-hydroxyethyl)amino]ethoxy]phenyl]cyclopropyl]amino]-2-oxo-1(2H)-pyrazinyl]-4-methyl-benzamide]
9.5	Cc1ccc(C(=O)NC2CC2)cc1-n1ccnc(NC2(c3ccccc3OCCNC3CCS(=O)(=O)C3)CC2)c1=O (centres unmarked) [Example 295, N-Cyclopropyl-3-[3-{[1-(2-{2-[(1,1-dioxidotetrahydrothiophen-3-yl)amino]ethoxy}phenyl)cyclopropyl]amino}-2-oxopyrazin-1(2H)-yl]-4-methylbenzamide]
10.2	CCCNCCOc1ccccc1C1(Nc2nccn(-c3cc(C(=O)NC4CC4)ccc3C)c2=O)CC1 [Example 298, N-Cyclopropyl-4-methyl-3-{2-oxo-3-[(1-{2-[2-(propylamino)ethoxy]phenyl}cyclopropyl)amino]pyrazin-1(2H)-yl}benzamide]
6.8	Cc1ccc(C(=O)NC2CC2)cc1-n1ccnc(NCCc2ccc(O)cc2)c1=O [Example 70, N-Cyclopropyl-3-[3-[[2-(4-hydroxyphenyl)ethyl]amino]-2-oxo-1(2H)-pyrazinyl]-4-methyl-benzamide]
5.9	Cc1ccc(C(=O)NC2CC2)cc1-n1ccnc(NCCN(C)C)c1=O [Example 5, N-Cyclopropyl-3-[3-[[2-(dimethylamino)ethyl]amino]-2-oxo-1(2H)-pyrazinyl]-4-methyl-benzamide]
9.6	Cc1ccc(C(=O)NC2CC2)cc1-n1ccnc(NC2(c3cccc(F)c3OCCNCCO)CC2)c1=O [Example 285, N-Cyclopropyl-3-[3-{[1-(3-fluoro-2-{2-[(2-hydroxyethyl)amino]ethoxy}phenyl)cyclopropyl]amino}-2-oxopyrazin-1(2H)-yl]-4-methylbenzamide]
10.3	Cc1c(F)cc(C(=O)NC2CC2)cc1-n1ccnc(NC2(c3cc(F)ccc3OCCNCCO)CC2)c1=O [Example 282, N-Cyclopropyl-3-fluoro-5-[3-{[1-(5-fluoro-2-{2-[(2-hydroxyethyl)amino]ethoxy}phenyl)cyclopropyl]amino}-2-oxopyrazin-1(2H)-yl]-4-methylbenzamide]
10.1	Cc1ccc(C(=O)NC2CC2)cc1-n1ccnc(NC2(c3cc(F)ccc3OCCNCCO)CC2)c1=O [Example 279, N-Cyclopropyl-3-[3-[[1-[5-fluoro-2-[2-[(2-hydroxyethyl)amino]ethoxy]phenyl]cyclopropyl]amino]-2-oxo-1(2H)-pyrazinyl]-4-methyl-benzamide]

pIC50	Compound
9.2	Cc1ccc(C(=O)NC2CC2)cc1-n1ccnc(N[C@@H](c2ccccc2)[C@@H](C)CN2CCSCC2)c1=O [Example 189, N-Cyclopropyl-4-methyl-3-[3-[[(1R,2S)-2-methyl-1-phenyl-3-(4-thiomorpholinyl)propyl]amino]-2-oxo-1(2H)-pyrazinyl]-benzamide]
10.2	CNC[C@H](O)COc1ccccc1C1(Nc2nccn(-c3cc(C(=O)NC4CC4)ccc3C)c2=O)CC1 [Example 304, N-Cyclopropyl-3-[3-{[1-(2-{[(2S)-2-hydroxy-3-(methylamino)propyl]oxy}phenyl)cyclopropyl]amino}-2-oxopyrazin-1(2H)-yl]-4-methylbenzamide]
10.3	Cc1c(F)cc(C(=O)NC2CC2)cc1-n1ccnc(NC2(c3ccccc3OCCNCCO)CC2)c1=O [Example 260, N-Cyclopropyl-3-fluoro-5-[3-[[1-[2-[2-[(2-hydroxyethyl)amino]ethoxy]phenyl]cyclopropyl]amino]-2-oxo-1(2H)-pyrazinyl]-4-methyl-benzamide]
7.1	CONC(=O)c1ccc(C)c(-n2ccnc(NCc3ccccc3CN3CCN(C)CC3)c2=O)c1 [Example 111, N-Methoxy-4-methyl-3-[3-[[[2-[(4-methyl-1-piperazinyl)methyl]phenyl]methyl]amino]-2-oxo-1(2H)-pyrazinyl]-benzamide]
7	Cc1ccc(C(=O)NC2CC2)cc1-n1ccnc(NC[C@@H](C)c2ccccc2)c1=O [Example 58, N-Cyclopropyl-4-methyl-3-[2-oxo-3-[[(2S)-2-phenylpropyl]amino]-1(2H)-pyrazinyl]-benzamide]
7.4	Cc1ccc(C(=O)NC2CC2)cc1-n1ccnc(N2CCNC(c3ccccc3)C2)c1=O (centres unmarked) [Example 53, N-Cyclopropyl-4-methyl-3-[2-oxo-3-(3-phenyl-1-piperazinyl)-1(2H)-pyrazinyl]-benzamide]
6.1	Cc1ccc(C(=O)NC2CC2)cc1-n1cc(Cl)nc(N2CCN(C)CC2)c1=O [Example 107, 3-[5-Chloro-3-(4-methyl-1-piperazinyl)-2-oxo-1(2H)-pyrazinyl]-N-cyclopropyl-4-methyl-benzamide]
7.8	Cc1ccc(C)c(CNc2nccn(-c3cc(C(=O)NC4CC4)ccc3C)c2=O)c1 [Example 98, N-Cyclopropyl-3-[3-[[(2,5-dimethylphenyl)methyl]amino]-2-oxo-1(2H)-pyrazinyl]-4-methyl-benzamide]
8.5	COc1ccccc1[C@H](Nc1nccn(-c2cc(C(=O)NC3CC3)ccc2C)c1=O)[C@@H](C)CN1CCCC1 [Example 277, N-Cyclopropyl-3-[3-[[(1R,2S)-1-(2-methoxyphenyl)-2-methyl-3-(1-pyrrolidinyl)propyl]amino]-2-oxo-1(2H)-pyrazinyl]-4-methyl-benzamide]
8.8	Cc1cccc([C@H](Nc2nccn(-c3cc(C(=O)NC4CC4)ccc3C)c2=O)[C@@H](C)CN2CCCC2)c1 [Example 276, N-Cyclopropyl-3-[3-[[(1R,2S)-1-(3-methylphenyl)-2-methyl-3-(1-pyrrolidinyl)propyl]amino]-2-oxo-1(2H)-pyrazinyl]-4-methyl-benzamide]
7.2	Cc1ccc(C(=O)NC2CC2)cc1-n1cc(Cl)nc(NCc2ccccc2)c1=O [Example 109, 3-[5-Chloro-2-oxo-3-[(phenylmethyl)amino]-1(2H)-pyrazinyl]-N-cyclopropyl-4-methyl-benzamide]
6.2	Cc1ccc(C(=O)NC2CC2)cc1-n1ccnc(NCc2ccc(CN)cc2)c1=O [Example 125, 3-[3-[[[4-(Aminomethyl)phenyl]methyl]amino]-2-oxo-1(2H)-pyrazinyl]-N-cyclopropyl-4-methyl-benzamide]
9	Cc1ccc(C(=O)NC2CC2)cc1-n1ccnc(N[C@@H](c2ccccc2)[C@@H](C)CNCC(C)(C)C)c1=O [Example 157, N-Cyclopropyl-3-[3-[[(1R,2S)-3-[(2,2-dimethylpropyl)amino]-2-methyl-1-phenylpropyl]amino]-2-oxo-1(2H)-pyrazinyl]-4-methyl-benzamide]
6.2	Cc1ccc(C(=O)NC2CC2)cc1-n1cc(C(N)=O)nc(NCc2ccccc2)c1=O [Example 106, 4-[5-[(Cyclopropylamino)carbonyl]-2-methylphenyl]-4,5-dihydro-5-oxo-6-[(phenylmethyl)amino]-2-pyrazinecarboxamide]
9.1	Cc1ccc(C(=O)NC2CC2)cc1-n1ccnc(N[C@@H](c2ccccc2)[C@@H](C)CN2CCC[C@H](O)C2)c1=O [Example 185, N-Cyclopropyl-3-[3-[[(1R,2S)-3-[(3S)-3-hydroxy-1-piperidinyl]-2-methyl-1-phenylpropyl]amino]-2-oxo-1(2H)-pyrazinyl]-4-methyl-benzamide]
7.9	Cc1ccc(C(=O)NC2CC2)cc1-n1ccnc(NCc2cccc3c2OCCO3)c1=O [Example 91, N-Cyclopropyl-3-[3-[[(2,3-dihydro-1,4-benzodioxin-5-yl)methyl]amino]-2-oxo-1(2H)-pyrazinyl]-4-methyl-benzamide]
